Data taken from patent US20090036466A1, “AMINO-BENZIMIDAZOLES DERIVATIVES AS INHIBITORS OF RESPIRATORY SYNCYTIAL VIRUS REPLICATION” (priority 2003, published 2009).
Structures can show the parent of a compound that is named as a salt.

Tested on: Respiratory Syncytial Virus
Test: microbe, parasite or virus in culture
Assay type: cell-based
Details: human respiratory syncytial virus, 168 h; protection against RSV cytopathology in HeLa cells, MTT read-out seven days after infection; pEC50 = -log of EC50 in molar units
Protocol: The percent protection against cytopathology caused by viruses (antiviral activity or EC50) achieved by tested compounds and their cytotoxicity (CC50) are both calculated from dose-response curves.
Automated tetrazolium-based […] assays were used for determination of EC50 and CC50 of test compounds. Flat-bottom, 96-well plastic microtiter trays were filled with 180 μl of Eagle's Basal Medium, supplemented with 5% FCS (0% for FLU) and 20 mM Hepes buffer. Subsequently, stock solutions (7.8× final test concentration) of compounds were added in 45 μl volumes to a series of triplicate wells so as to allow simultaneous evaluation of their effects on virus- and mock-infected cells. Five five-fold dilutions were made directly in the microtiter trays using a robot system. Untreated virus controls, and HeLa cell controls were included in each test. Approximately 100 TCID50 of Respiratory Syncytial Virus was added to two of the three rows in a volume of 50 μl. The same volume of medium was added to the third row to measure the cytotoxicity of the compounds at the same concentrations as those used to measure the antiviral activity. After two hours of incubation, a suspension (4×10^5 cells/ml) of HeLa cells was added to all wells in a volume of 50 μl. The cultures were incubated at 37° C. in a 5% CO2 atmosphere. Seven days after infection the cytotoxicity and the antiviral activity was examined spectrophotometrically. To each well of the microtiter tray, 25 μl of a solution of MTT (3-(4,5-dimethylthiazol-2-yl)-2,5-diphenyltetrazolium bromide) was added. The trays were further incubated at 37° C. for 2 hours, after which the medium was removed from each cup. Solubilization of the formazan crystals was achieved by adding 100 μl 2-propanol. Complete dissolution of the formazan crystals were obtained after the trays have been placed on a plate shaker for 10 min. Finally, the absorbances were read in an eight-channel computer-controlled photometer (Multiskan MCC, Flow Laboratories) at two wavelengths (540 and 690 nm). The absorbance measured at 690 nm was automatically subtracted from the absorbance at 540 nm, so as to eliminate the effects of non-specific absorption.

SMILES	EC50
Cc1cc(C)c2nc(NCCCN3CCCCC3)n(Cc3nc(C)ccc3O)c2c1 [Compound 1, 2-[4,6-dimethyl-2-(3-piperidin-1-yl-propylamino)-benzoimidazol-1-ylmethyl]-6-methyl-pyridin-3-ol]	20 nM
Cc1cc(C)c2nc(NCC(O)CO)n(Cc3nc(C)ccc3O)c2c1 (stereo not drawn) [Compound 4, 3-[1-(3-hydroxy-6-methyl-pyridin-2-ylmethyl)-4,6-dimethyl-1H-benzoimidazol-2-ylamino]-propane-1,2-diol]	39.8 nM
Cc1cc(C)c2nc(NCCCO)n(Cc3nc(C)ccc3O)c2c1 [Compound 7, 2-[2-(3-hydroxypropylamino)-4,6-dimethyl-benzoimidazol-1-ylmethyl]-6-methyl-pyridin-3-ol]	158 nM
Cc1cc(C)c2nc(NCCC(N)=O)n(Cc3nc(C)ccc3O)c2c1 [Compound 8, 3-[1-(3-hydroxy-6-methyl-pyridin-2-ylmethyl)-4,6-dimethyl-1H-benzoimidazol-2-ylamino]-propionamide]	158 nM
Cc1cc(C)c2nc(Nc3ccc(CN)cc3)n(Cc3nc(C)ccc3O)c2c1 [Compound 9, 2-[2-(4-aminomethyl-phenylamino)-4,6-dimethyl-benzoimidazol-1-ylmethyl]-6-methyl-pyridin-3-ol]	251 nM
CCOC(=O)CCNc1nc2c(C)cc(C)cc2n1Cc1nc(C)ccc1O [Compound 12, 3-[1-(3-hydroxy-6-methylpyridin-2-ylmethyl)-4,6-dimethyl-1H-benzoimidazol-2-ylamino]-propionic acid ethyl ester]	3160 nM

Tested on: not given
Test: not given
Details: not given

melting point	SMILES
> 260 °C	Cc1cc(C)c2nc(NCCCN3CCCCC3)n(Cc3nc(C)ccc3O)c2c1 (as salt: salt) [Compound 1, 2-[4,6-dimethyl-2-(3-piperidin-1-yl-propylamino)-benzoimidazol-1-ylmethyl]-6-methyl-pyridin-3-ol]
205 °C	Cc1cc(C)c2nc(NCC(O)CO)n(Cc3nc(C)ccc3O)c2c1 (stereo not drawn) (as salt: salt) [Compound 4, 3-[1-(3-hydroxy-6-methyl-pyridin-2-ylmethyl)-4,6-dimethyl-1H-benzoimidazol-2-ylamino]-propane-1,2-diol]
170 °C	Cc1cc(C)c2nc(NCCCO)n(Cc3nc(C)ccc3O)c2c1 (as salt: salt) [Compound 7, 2-[2-(3-hydroxypropylamino)-4,6-dimethyl-benzoimidazol-1-ylmethyl]-6-methyl-pyridin-3-ol]
229 °C	Cc1cc(C)c2nc(NCCC(N)=O)n(Cc3nc(C)ccc3O)c2c1 (as salt: salt) [Compound 8, 3-[1-(3-hydroxy-6-methyl-pyridin-2-ylmethyl)-4,6-dimethyl-1H-benzoimidazol-2-ylamino]-propionamide]
255 °C	Cc1cc(C)c2nc(Nc3ccc(CN)cc3)n(Cc3nc(C)ccc3O)c2c1 (as salt: salt) [Compound 9, 2-[2-(4-aminomethyl-phenylamino)-4,6-dimethyl-benzoimidazol-1-ylmethyl]-6-methyl-pyridin-3-ol]
180 °C	CCOC(=O)CCNc1nc2c(C)cc(C)cc2n1Cc1nc(C)ccc1O (as salt: salt) [Compound 12, 3-[1-(3-hydroxy-6-methylpyridin-2-ylmethyl)-4,6-dimethyl-1H-benzoimidazol-2-ylamino]-propionic acid ethyl ester]
